Experimental data from the NIST ThermoML archive (doi:10.1016/j.jct.2011.08.016).

Assay: xn = mol fraction of the nth substance listed
Settings: Liquid, Vibrating tube method

CCCCCCCCCC [decane] + CCCCCCCC
Settings	mass density [kg/m3]
313.14 K, 1000 kPa, x2 = 0.0616	714.37
313.14 K, 2000 kPa, x2 = 0.0616	715.15
313.14 K, 3000 kPa, x2 = 0.0616	716
313.14 K, 4000 kPa, x2 = 0.0616	716.89
313.14 K, 5000 kPa, x2 = 0.0616	717.71
313.14 K, 6000 kPa, x2 = 0.0616	718.51
313.14 K, 7000 kPa, x2 = 0.0616	719.36
313.14 K, 8000 kPa, x2 = 0.0616	720.16
313.14 K, 9000 kPa, x2 = 0.0616	720.97
313.14 K, 10000 kPa, x2 = 0.0616	721.75
313.14 K, 10990 kPa, x2 = 0.0616	722.52
313.14 K, 12000 kPa, x2 = 0.0616	723.27
313.14 K, 13000 kPa, x2 = 0.0616	724.05
313.14 K, 14000 kPa, x2 = 0.0616	724.81
313.14 K, 15000 kPa, x2 = 0.0616	725.5
313.14 K, 16000 kPa, x2 = 0.0616	726.26
313.14 K, 17000 kPa, x2 = 0.0616	726.99
313.14 K, 18000 kPa, x2 = 0.0616	727.69
313.14 K, 19000 kPa, x2 = 0.0616	728.37
313.14 K, 20000 kPa, x2 = 0.0616	729.06
313.14 K, 21000 kPa, x2 = 0.0616	729.73
313.14 K, 22000 kPa, x2 = 0.0616	730.38
313.14 K, 23000 kPa, x2 = 0.0616	731.03
313.14 K, 24000 kPa, x2 = 0.0616	731.6
313.14 K, 25000 kPa, x2 = 0.0616	732.22
313.17 K, 1000 kPa, x2 = 0.2801	709.26
313.17 K, 1000 kPa, x2 = 0.9623	688.85
313.17 K, 2000 kPa, x2 = 0.2801	710.07
313.17 K, 2000 kPa, x2 = 0.9623	689.77
313.17 K, 3000 kPa, x2 = 0.2801	710.9
313.17 K, 3000 kPa, x2 = 0.9623	690.64
313.17 K, 4000 kPa, x2 = 0.2801	711.79
313.17 K, 4000 kPa, x2 = 0.9623	691.53
313.17 K, 5000 kPa, x2 = 0.2801	712.65
313.17 K, 5000 kPa, x2 = 0.9623	692.37
313.17 K, 6000 kPa, x2 = 0.2801	713.47
313.17 K, 6000 kPa, x2 = 0.9623	693.31
313.17 K, 7000 kPa, x2 = 0.2801	714.32
313.17 K, 7000 kPa, x2 = 0.9623	694.24
313.17 K, 8000 kPa, x2 = 0.2801	715.17
313.17 K, 8000 kPa, x2 = 0.9623	695.11
313.17 K, 9000 kPa, x2 = 0.2801	715.99
313.17 K, 9000 kPa, x2 = 0.9623	696.04
313.17 K, 10000 kPa, x2 = 0.2801	716.81
313.17 K, 10000 kPa, x2 = 0.9623	696.93
313.17 K, 10990 kPa, x2 = 0.2801	717.63
313.17 K, 10990 kPa, x2 = 0.9623	697.85
313.17 K, 12000 kPa, x2 = 0.2801	718.42
313.17 K, 12000 kPa, x2 = 0.9623	698.72
313.17 K, 13000 kPa, x2 = 0.2801	719.2
313.17 K, 13000 kPa, x2 = 0.9623	699.57
313.17 K, 14000 kPa, x2 = 0.2801	719.98
313.17 K, 14000 kPa, x2 = 0.9623	700.45
313.17 K, 15000 kPa, x2 = 0.2801	720.74
313.17 K, 15000 kPa, x2 = 0.9623	701.33
313.17 K, 16000 kPa, x2 = 0.2801	721.5
313.17 K, 16000 kPa, x2 = 0.9623	702.18
313.17 K, 17000 kPa, x2 = 0.2801	722.23
313.17 K, 17000 kPa, x2 = 0.9623	703
313.17 K, 18000 kPa, x2 = 0.2801	723
313.17 K, 18000 kPa, x2 = 0.9623	703.81
313.17 K, 19000 kPa, x2 = 0.2801	723.67
313.17 K, 19000 kPa, x2 = 0.9623	704.6
313.17 K, 20000 kPa, x2 = 0.2801	724.35
313.17 K, 20000 kPa, x2 = 0.9623	705.32
313.17 K, 21000 kPa, x2 = 0.2801	725.02
313.17 K, 21000 kPa, x2 = 0.9623	706.06
313.17 K, 22000 kPa, x2 = 0.2801	725.7
313.17 K, 22000 kPa, x2 = 0.9623	706.8
313.17 K, 23000 kPa, x2 = 0.2801	726.3
313.17 K, 23000 kPa, x2 = 0.9623	707.48
313.17 K, 24000 kPa, x2 = 0.2801	726.9
313.17 K, 24000 kPa, x2 = 0.9623	708.16
313.17 K, 25000 kPa, x2 = 0.2801	727.55
313.17 K, 25000 kPa, x2 = 0.9623	708.78
313.19 K, 1000 kPa, x2 = 0.5314	702.8
313.19 K, 1000 kPa, x2 = 0.7736	695.32
313.19 K, 2000 kPa, x2 = 0.5314	703.69
313.19 K, 2000 kPa, x2 = 0.7736	696.27
313.19 K, 3000 kPa, x2 = 0.5314	704.53
313.19 K, 3000 kPa, x2 = 0.7736	697.14
313.19 K, 4000 kPa, x2 = 0.5314	705.35
313.19 K, 4000 kPa, x2 = 0.7736	698.01
313.19 K, 5000 kPa, x2 = 0.5314	706.16
313.19 K, 5000 kPa, x2 = 0.7736	698.89
313.19 K, 6000 kPa, x2 = 0.5314	707.05
313.19 K, 6000 kPa, x2 = 0.7736	699.8
313.19 K, 7000 kPa, x2 = 0.5314	707.93
313.19 K, 7000 kPa, x2 = 0.7736	700.67
313.19 K, 8000 kPa, x2 = 0.5314	708.77
313.19 K, 8000 kPa, x2 = 0.7736	701.55
313.19 K, 9000 kPa, x2 = 0.5314	709.59
313.19 K, 9000 kPa, x2 = 0.7736	702.44
